# Data from PubChem BioAssay (NCI).
# Where “and” joins values, the source holds several entries; their conditions need not be identical. Equal entries are not always repeated.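 Assay format: 96-well plates, 48-hour exposure. GI50 = concentration required for 50% inhibition of growth. TGI marks complete inhibition of growth.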 *1 amine or outer side, *2 acyl side, *3 side chain or, on linkers, in order; H or OH if unused. Where a SMILES comes first, the peptide text is derived from it. Bridges are numbered along the chain shown (N, C = ends). Roman numbers before positions name the chains, in order. X23 = CCCCCCCCCCCCCCC(=O)NC(CCCCN[*:2])C(=O)CN1CCCC1C(=O)[*:1]
# How the values were obtained:
# Experiment in all cases: growth of human tumour cells (NCI), 48 h
# OVCAR-8 ovarian = tested on: OVCAR-8 ovarian
# SK-MEL-5 melanoma = tested on: SK-MEL-5 melanoma
# SK-OV-3 ovarian = tested on: SK-OV-3 ovarian
# HCC-2998 colon = tested on: HCC-2998 colon
# OVCAR-4 ovarian = tested on: OVCAR-4 ovarian
# IGROV1 ovarian = tested on: IGROV1 ovarian
# EKVX NSCLC = tested on: EKVX NSCLC
# K-562 leukemia = tested on: K-562 leukemia
# UO-31 renal = tested on: UO-31 renal
# OVCAR-3 ovarian = tested on: OVCAR-3 ovarian
Compound,GI50 (OVCAR-8 ovarian) [µM],TGI (OVCAR-8 ovarian),GI50 (SK-MEL-5 melanoma),TGI (SK-MEL-5 melanoma) [µM],GI50 (SK-OV-3 ovarian),TGI (SK-OV-3 ovarian),GI50 (HCC-2998 colon) [µM],TGI (HCC-2998 colon),GI50 (OVCAR-4 ovarian) [µM],TGI (OVCAR-4 ovarian),GI50 (IGROV1 ovarian),TGI (IGROV1 ovarian) [µM],GI50 (EKVX NSCLC),TGI (EKVX NSCLC) [µM],GI50 (K-562 leukemia) [µM],TGI (K-562 leukemia),GI50 (UO-31 renal) [µM],TGI (UO-31 renal) [µM],GI50 (OVCAR-3 ovarian),TGI (OVCAR-3 ovarian) [µM]
CCCCCCCCCCCCCCC(=O)NC(CCCCNC(=O)C1CCCN1C(=O)C(CCCCN)NC(=O)C(CCCCN)NC(=O)C(CCCCN)NC(=O)C(CCCNC(=N)N)NC(=O)C(CCCCN)NC(=O)C(N)C(C)C)C(=O)CN1CCCC1C(=O)NCC(=O)NC(Cc1ccccc1)C(=O)N1CCCC1C(=O)NC(CO)C(=O)NC(Cc1ccc(O)cc1)C(=O)NC(CCCCN)C(=O)NC(CC(C)C)C(=O)NC(CCCNC(=N)N)C(=O)N1CCCC1C(=O)NCC(N)=O (configuration not stated) (I: GFPSYKLRPG-NH2 / II: H-VKRKKKP; linker I:N-II:C via X23; configuration not given here),26.3,85.8 µM,8.01 µM,> 100,15.9 µM,44.3 µM,2.34,8.59 µM,28.7,97.1 µM,14.8 µM,52.4,20.3 µM,58.7,9.27,44.4 µM,24.7,77.1,18.7 µM,94.6
O=C1/C(=C/c2ccc3c(c2)OCO3)Sc2scc(-c3ccc(O)c(O)c3)[n+]21,,9.94 µM,,> 22.4,,17.5 µM,,3.64 µM,,14 µM,,8.09,,8.25,,2.93 µM,,6.08,,15.3
O=CNNC(=O)CSc1nc2ccc(I)cc2c(=O)n1Cc1ccccc1,,> 100 µM,,38.2,,> 100 µM,,81.6 µM,,> 100 µM,,> 100,,69.7,,> 100 µM,,3.93,,50.2
CC(=O)C1=C(C)N(c2ccc(C)cc2)C2(O)C=CC(=O)C3=C(O)c4ccccc4C(=O)C312 (configuration not stated),,64.6 µM,,26.3,,> 100 µM,,42.2 µM,,36 µM,,> 100,,61.2,,> 100 µM,,34.8,,16.1
COc1cccc2c1C(=O)c1c(O)c3c(c(O)c1C2=O)C[C@@](O)(C(C)=O)C[C@@H]3OC1CC(N(C)C)C(O)C(C)O1 (some centres not stated),0.00719,2.8 µM and 3.75 µM,0.0368 µM and < 0.0109 µM,,0.144 µM and 0.115 µM,3.17 µM and 3.85 µM,,0.27 µM and 0.205 µM,< 0.0164,0.52 µM and 0.977 µM,0.0218 µM and < 0.0111 µM,,0.126 µM and 0.0588 µM,,0.00456,1.09 µM and 0.182 µM,0.0561,,0.108 µM and 0.155 µM,
COC1=CCC2=C(CCN(C(=O)C3CC3)C2Cc2ccc(OC)c(O)c2)C1 (configuration not stated),,> 100 µM,,> 100,,> 100 µM,,> 100 µM,,> 100 µM,,> 100,,> 100,,> 100 µM,,> 100,,> 100
Nc1nccc2c1ncn2C1C=C(CO)C(O)C1O (configuration not stated),23.9,> 1000 µM,,> 1000,> 1000 µM,> 1000 µM,3.28,> 1000 µM,> 1000,> 1000 µM,> 1000 µM,> 1000,,,0.249,> 1000 µM,,,136 µM,> 1000
O=C1CSc2sc(=S)sc2S1,,> 100 µM,,> 100,,> 100 µM,,> 100 µM,,> 100 µM,,> 100,,> 100,,> 100 µM,,> 100,,> 100
O=C1NC2(NC(=O)C1=O)Nc1ccccc1S2,,> 100 µM,,> 100,,> 100 µM,,> 100 µM,,> 100 µM,,> 100,,> 100,,> 64.7 µM,,> 95.4,,> 100
Cc1cc(O)c2cc3c(O)c(O)ccc3cc2c1,,11.2 µM,,1.07,,9.82 µM,,16.4 µM,,5.53 µM,,10.8,,24.7,,3.33 µM,,2.22,,6.04
O=[P+](O)c1cccs1,,> 100 µM,,> 100,,> 100 µM,,,,,,> 100,,> 100,,> 100 µM,,> 100,,
O=NN(CCCl)C(=O)Nc1ccc(Cl)c(Cl)c1,,> 100 µM,,> 100,,> 100 µM,,> 100 µM,,> 100 µM,,> 100,,> 100,,> 100 µM,,99.3,,> 100
CC1C(O)[C@@]2(OC[C@@]34C(=O)CC5(O)[C@H](CCC6Cc7nc8c(nc7C[C@]65C)CC5CC[C@@H]6C7=C[C@H]9O[C@@]%10(O[C@@](C)(CO)C[C@@H]%10O)C(C)[C@@]9(O)[C@]7(C)[C@@H](O)CC6[C@]5(C)C8)C3=CC[C@H]4C2C)OC1(C)C (some centres not stated),,> 3.55 µM,,0.415,,0.274 µM,,> 3.55 µM,,> 3.55 µM,,> 3.55,,0.499,,0.0798 µM,,0.134,,> 3.55
Cc1ccc([S+](c2ccccc2)c2cc(C)ccc2C)cc1 (configuration not stated),,> 100 µM,,3.91,,,,28.5 µM,,> 100 µM,,25.3,,> 100,,> 100 µM,,> 100,,> 100
CC(=O)OCC1OC(N2C(=O)CC(N)=Nc3ccccc32)C(OC(C)=O)C(OC(C)=O)C1OC(C)=O (configuration not stated),,> 100 µM,,46.8,,> 100 µM,,> 100 µM,,> 100 µM,,> 100,,> 100,,> 100 µM,,> 100,,> 100
CN(CCNC(=O)c1cn(C)c2c1ccc1cc(Cl)ccc12)CCNC(=O)c1cn(C)c2c1ccc1cc(Cl)ccc12,,33.8 µM,,> 26.9,,,,,,3.68 µM,,21.6,,4.04,,13.6 µM,,2.94,,6.43
CCc1cccc(C(C)C)c1NC1=C([n+]2ccc(C)cc2)C(=O)c2ccccc2C1=O,,4.79 µM,,4.66,,19.7 µM,,20.9 µM,,10.9 µM,,8.18,,5.16,,20.3 µM,,10,,2.31
Oc1ccc(NCc2cc(O)ccc2O)cc1,,> 100 µM,,38.9,,36.7 µM,,30.8 µM,,30.7 µM,,34.2,,31.2,,55.2 µM,,29.4,,32
COC[C@@H]1Cc2cc(OC)c3c(c2[C@H](c2ccc(OC)c(OC)c2)[C@H]1COC)OCO3,,> 100 µM,,,,> 100 µM,,> 100 µM,,,,> 100,,> 100,,,,> 100,,> 100
C[As](C)SCC(NC(=O)CCC(N)C(=O)O)C(=O)NCC(=O)O.Cl.c1ccncc1 (configuration not stated),,0.679 µM,,0.878,,> 47.8 µM,,0.813 µM,,2.64 µM,,6.18,,3.08,,,,1.31,,0.412
O=CN(O)CC(=O)O.[Ni],,> 100 µM,,> 100,,> 100 µM,,> 100 µM,,> 100 µM,,> 100,,> 100,,> 100 µM,,> 100,,> 100
CC(C)(C)OC(=O)N1CCCC1C(=O)NCCNc1ccc(NCCNC(=O)C2CCCN2C(=O)OC(C)(C)C)c2c1C(=O)c1ccccc1C2=O (configuration not stated),,21 µM,,,,39.6 µM,,25.7 µM,,51.4 µM,,31.7,,> 100,,> 100 µM,,,,27.1
Cc1ccc(NC(=O)CC(=O)n2nc(-c3ccccc3)c(N=Nc3ccccc3C(=O)O)c2-c2ccccc2)cc1,,> 100 µM,,> 100,,> 100 µM,,> 100 µM,,> 100 µM,,> 100,,> 100,,> 100 µM,,> 100,,> 100
NS(=O)(=O)c1ccc(N=Nc2ccc(O)c(O)c2)cc1,,21.5 µM,,19.7,,67 µM,,41.3 µM,,29.1 µM,,28.3,,> 100,,> 100 µM,,26.4,,> 100
OCCSCc1cc(Cl)cc(Cl)c1O,,> 100 µM,,> 100,,> 100 µM,,> 100 µM,,> 100 µM,,> 100,,> 100,,> 100 µM,,> 100,,> 100
